This note sets out measurements from patent US8513271B2, “Pyrimidine compounds as delta opioid receptor modulators” (Janssen Pharmaceutica, NV, priority 2009, dated 2013).

Several values for one entry are separate records, joined by “and”; a condition that tells them apart may be missing. Identical values can stand only once. Like-named read-outs stand apart in the source and are kept apart here.

Assay [1] has as its target T1, delta opioid receptor (Rattus norvegicus, UniProt P33533).
T1 construct: the forebrains were homogenized in Tris buffer in a Teflon®-glass homogenizer; from tissue; host or cells: forebrain of male Wistar rats, particulate (membrane) preparation
Kind of assay: Rat brain delta opioid receptor binding assay. To be noted: rat forebrain.

Assay [2] concerns the target T2, mu opioid receptor (Rattus norvegicus, UniProt P33535).
T2 construct: the forebrains were homogenized in Tris buffer in a Teflon®-glass homogenizer; from tissue; host or cells: forebrain of male Wistar rats, particulate (membrane) preparation
Kind of assay: Rat brain mu opioid receptor binding assay. Particulars: rat forebrain, [3H]DAMGO ligand.

The target of assay [3] is T3, delta opioid receptor (Mus musculus, UniProt P32300).
T3 construct: NG108-15 cell membranes were purchased from Applied Cell Sciences (Rockville, Md.); host or cells: NG108-15 cell membranes
T3 sequence (P32300 whole entry): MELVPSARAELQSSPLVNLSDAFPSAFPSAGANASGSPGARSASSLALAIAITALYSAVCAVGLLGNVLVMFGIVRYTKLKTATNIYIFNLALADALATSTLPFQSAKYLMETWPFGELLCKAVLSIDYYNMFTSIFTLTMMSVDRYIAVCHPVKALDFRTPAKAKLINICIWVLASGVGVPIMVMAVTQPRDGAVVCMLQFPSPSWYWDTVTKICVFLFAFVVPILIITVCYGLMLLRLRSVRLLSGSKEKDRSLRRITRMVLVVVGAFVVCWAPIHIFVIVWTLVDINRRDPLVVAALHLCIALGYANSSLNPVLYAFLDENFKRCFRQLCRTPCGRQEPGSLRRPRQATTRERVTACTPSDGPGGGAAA
The assay is described as follows: [35S]GTPγS binding assay in NG108-15 cell membranes (delta opioid functional assay), 200 nM screen. It counts as biochemical. To be noted: for EC50 / GTPγS δ-opioid receptor Rel Efficacy: NG108-15 cell membranes; for EC50: averages if tested more than once; for inhibition at 10 µM: read-out: GTPγS δ-opioid receptor % Inh @10 μM; for GTPγS δ-opioid receptor Rel Efficacy: relative efficacy from dose response.

Assay [4] addresses T3, delta opioid receptor. Kind of assay: NG108-15, 24-well delta opioid receptor binding assay.
Where [5] appears, read: [3H]naltrindole ligand, read-out: δ-binding (Naltrindole ligand) Ki.
Where [6] appears, read: read-out: GTPγS δ-opioid receptor EC50.
The mark [7] stands for this setting: δ-binding (Naltrindole ligand) Ki, [3H]naltrindole ligand.
Setting [8] is: GTPγS δ-opioid receptor EC50 (μM).
Setting [9] is: [3H]Naltrindole ligand, NG108-15 cell membranes, read-out: δ-binding NG108 cell membrane Ki.

T2 sequence (P33535 whole entry): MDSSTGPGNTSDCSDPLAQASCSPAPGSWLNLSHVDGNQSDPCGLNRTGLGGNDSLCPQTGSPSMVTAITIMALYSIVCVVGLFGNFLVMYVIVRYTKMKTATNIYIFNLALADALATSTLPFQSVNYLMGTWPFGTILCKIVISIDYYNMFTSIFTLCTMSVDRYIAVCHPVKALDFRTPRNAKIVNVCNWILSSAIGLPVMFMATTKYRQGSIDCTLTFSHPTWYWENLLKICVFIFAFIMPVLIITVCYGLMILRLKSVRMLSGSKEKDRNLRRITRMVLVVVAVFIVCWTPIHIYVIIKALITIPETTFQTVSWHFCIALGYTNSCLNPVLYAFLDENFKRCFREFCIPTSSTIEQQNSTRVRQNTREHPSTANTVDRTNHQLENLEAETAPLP
T1 sequence (P33533 whole entry): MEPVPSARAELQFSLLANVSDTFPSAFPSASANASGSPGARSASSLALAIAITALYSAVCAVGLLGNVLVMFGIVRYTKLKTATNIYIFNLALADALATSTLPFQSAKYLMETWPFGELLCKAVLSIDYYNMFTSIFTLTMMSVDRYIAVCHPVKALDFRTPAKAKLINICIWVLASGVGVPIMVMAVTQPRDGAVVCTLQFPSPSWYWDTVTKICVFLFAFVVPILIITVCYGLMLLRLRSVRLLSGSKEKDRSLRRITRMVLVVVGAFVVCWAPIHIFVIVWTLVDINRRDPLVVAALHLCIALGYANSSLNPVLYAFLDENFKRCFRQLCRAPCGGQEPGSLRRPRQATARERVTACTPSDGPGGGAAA

Consider `COc1ccc(Oc2nc(-c3ccncc3)ncc2NC[C@@H]2CCCN2)cc1` [Cpd 7], for which, in assay [1] (setting [5]), the Ki turned out to be 13 nM. Besides, in assay [2] (read-out: μ-binding Ki), the Ki was determined as 2170 nM. Further, the EC50 in assay [3] (setting [6]) turned out to be 0.436 µM. In assay [3], the inhibition at 10 µM worked out at 17.1% and the “GTPγS δ-opioid receptor Rel Efficacy” value worked out at 0.912.
In the case of `COc1ccc(Oc2nc(-c3ccc(OC)c(F)c3)ncc2NC[C@@H]2CCCN2)cc1` [Cpd 64], the Ki in assay [1] (setting [7]) worked out at 8 nM; in assay [2] (μ-binding Ki) it was 466 nM. The response in assay [3] (setting [8]) was half-maximal at 0.088 µM (EC50). Besides, the inhibition at 10 µM in assay [3] was found to be 12%. Besides, the “GTPγS δ-opioid receptor Rel Efficacy” value in assay [3] was 0.830.
Take `COc1ccc(Oc2nc(-c3cncc(C#N)c3)ncc2NC[C@H]2CCCC[C@@H]2N)cc1` [Cpd 299]: the results for the Ki in assay [1] (setting [7]) and in assay [2] (read-out: μ-binding Ki) were 23 nM and 222 nM, respectively. Further, the EC50 in assay [3] (setting [6]) stood at 0.129 µM.
On the same counts, the results for `CCOc1ccc(Oc2nc(-c3cncnc3)ncc2NC[C@@H]2CCCN2)cc1` [Cpd 105] are 3 nM, 421 nM and 0.146 µM.
Turning to `COc1ccc(Oc2nc(-c3cnc(OC)nc3OC)ncc2NC[C@@H]2CCCN2)cc1` [Cpd 58], the values for the Ki in assay [1] (setting [7]) and in assay [2] (read-out: μ-binding Ki) were 4 nM and 640 nM, respectively. Further, in assay [3] (setting [6]), the EC50 worked out at 1.51 µM. Besides, the inhibition at 10 µM in assay [3] is 12.8%.
Consider `COc1ccc(Oc2nc(-c3ccnc(SC)n3)ncc2NC[C@@H]2CCCN2)cc1` [Cpd 66, [4-(4-Methoxy-phenoxy)-2′-methylsulfanyl-[2,4]bipyrimidinyl-5-yl]-pyrrolidin-2-(S)-ylmethyl-amine], for which the figures for the Ki in assay [1] (setting [7]) and in assay [2] (read-out: μ-binding Ki) were 10 nM and 390 nM, respectively. Besides, the EC50 in assay [3] (setting [6]) was determined as 0.568 µM. Further, the inhibition at 10 µM in assay [3] is 5.77%.
With `COc1ccc(Oc2nc(-c3cn[nH]c3)ncc2NC[C@@H]2CCCN2)cc1` [Cpd 65], the inhibition constant (Ki) in assay [1] (setting [5]) was found to be 3 nM; in assay [2] (read-out: μ-binding Ki) it was 555 nM. In addition, the EC50 in assay [3] (setting [6]) was 0.339 µM. The “GTPγS δ-opioid receptor Rel Efficacy” value in assay [3] is given as 0.824.
With `O=C(c1ccc(Oc2nc(-c3cccnc3)ncc2NC[C@@H]2CCCN2)cc1)N1CCCCC1` [Cpd 160, Piperidin-1-yl-(4-{2-pyridin-3-yl-5-[(pyrrolidin-2-(S)-ylmethyl)-amino]-pyrimidin-4-yloxy}-phenyl)-methanone], the inhibitory constant (Ki) in assay [4] (setting [9]) was found to be 338 nM.
With `CCOc1ccc(Oc2nc(-c3cncc(C#N)c3)ncc2NC[C@@H]2CCCN2)cc1` [Cpd 104], the Ki in assay [1] (setting [7]) is 8 nM; in assay [2] (μ-binding Ki), 190 nM. Further, it took 0.018 µM to reach a half-maximal effect in assay [3] (setting [8]) (EC50). In assay [3], the “GTPγS δ-opioid receptor Rel Efficacy” value is on record as 0.921.
With `O=C(O)c1cccc(Oc2nc(-c3cccnc3)ncc2NC[C@@H]2CCCN2)c1` [Cpd 163], the Ki in assay [4] (setting [9]) was found to be 6390 nM.
Consider `CCOc1ncc(-c2ncc(NC[C@@H]3CCCN3)c(Oc3ccc(OC)cc3)n2)cn1` [Cpd 60], for which, in assay [1] (setting [7]), the Ki turned out to be 14 nM. Besides, the Ki in assay [2] (μ-binding Ki) turned out to be 1520 nM. Also, in assay [3] (setting [8]), the EC50 was 0.089 µM. Also, in assay [3], the inhibition at 10 µM came to 3.73% and the “GTPγS δ-opioid receptor Rel Efficacy” value came out at 0.926.
In the case of `CN1CCN(C(=O)c2ccc(Oc3nc(-c4cccnc4)ncc3NC[C@@H]3CCCN3)cc2)CC1` [Cpd 162], the Ki in assay [4] (setting [9]) is 852 nM.
As for `COc1ccc(Oc2nc(-c3cnc(C#N)nc3)ncc2NC[C@@H]2CCCN2)cc1` [Cpd 121], the Ki came to 20 nM in assay [1] (setting [7]) and 379 nM in assay [2] (μ-binding Ki). Moreover, the EC50 in assay [3] (setting [8]) is 0.019 µM. Further, the “GTPγS δ-opioid receptor Rel Efficacy” value in assay [3] was found to be 1.010.
`COc1ccc(Oc2nc(-c3cncnc3)ncc2NC[C@@H](N)CC(C)C)cc1` [Cpd 295] returned a Ki in assay [4] of 64 nM.
`O=C(c1ccc(Oc2nc(-c3cccnc3)ncc2NC[C@@H]2CCCN2)cc1)N1CCOCC1` [Cpd 161]: the Ki in assay [4] (setting [9]) stood at 795 nM.
Take `CN1CCN(C(=O)c2cccc(Oc3nc(-c4cccnc4)ncc3NC[C@@H]3CCCN3)c2)CC1` [Cpd 169]: in assay [4] (setting [9]), the Ki worked out at 33 nM.
Consider `CCCOc1ccc(Oc2nc(-c3cncc(C#N)c3)ncc2NC[C@@H]2CCCN2)cc1` [Cpd 113], for which the figures for the Ki in assay [1] (setting [7]) and in assay [2] (μ-binding Ki) were 45 nM and 1430 nM, respectively. In assay [3] (setting [8]), this compound came in with an EC50 of 0.075 µM. Besides, the “GTPγS δ-opioid receptor Rel Efficacy” value in assay [3] turned out to be 1.104.
As for `COc1ccc(Oc2nc(-c3ccccc3)ncc2NC[C@@H]2CCCN2)cc1` [Cpd 2], the Ki was 20 nM in assay [1] (δ-binding (DPDPE ligand) Ki, [3H]DPDPE ligand); 33 nM in assay [1] (setting [7]); 3140 nM and 3390 nM in assay [2] (μ-binding Ki). For the same compound, the EC50 in assay [3] (setting [8]) was 0.43 µM and 0.069 µM. In assay [3], the inhibition at 10 µM stood at 5.79%. In assay [3], the “GTPγS δ-opioid receptor Rel Efficacy” value is recorded as 0.733.
Consider `COc1ccc(Oc2nc(-c3cncnc3)ncc2NC[C@@H]2C[C@@H](F)CN2)cc1` [Cpd 80], for which the Ki was 2 nM in assay [1] (setting [7]) and 106 nM in assay [2] (read-out: μ-binding Ki). Also, the EC50 in assay [3] (setting [6]) is 0.113 µM.
For `COc1ccc(Oc2nc(-c3cnn(C)c3)ncc2NC[C@@H]2CCCN2)cc1` [Cpd 67], in that order: 1 nM, 1560 nM and 0.194 µM.
As for `COc1ccc(Oc2nc(-c3ccc(O)nc3)ncc2NC[C@@H]2CCCN2)cc1` [Cpd 74], the figures for the Ki in assay [1] (setting [7]) and in assay [2] (read-out: μ-binding Ki) were 26 nM and 1060 nM, respectively. For the same compound, in assay [3] (setting [6]), the EC50 was found to be 0.856 µM. The inhibition at 10 µM in assay [3] is 2.37%.
For the compound `COc1ccc(Oc2nc(-c3cccc4ccccc34)ncc2NC[C@@H]2CCCN2)cc1` [Cpd 5], the Ki in assay [1] (setting [5]) was 157 nM; in assay [2] (read-out: μ-binding Ki), more than 10000 nM. Further, the EC50 in assay [3] (setting [6]) turned out to be 0.164 µM. In addition, the inhibition at 10 µM in assay [3] was 18.1%. Besides, the “GTPγS δ-opioid receptor Rel Efficacy” value in assay [3] is given as 0.803.

In general, Ki refers to a measure of affinity in units of concentration, obtained from inhibition or displacement. What is called EC50 is the midpoint of the concentration-response curve.
